Literature values as cited in patent publication US20050060811A1, “Fabric care article and method for conserving energy” (The Procter & Gamble Company, priority 2000, published 2005).

Conditions: for water solubility: in water

Row | Structure (SMILES) | water solubility | solubility in water
1 | ClC=CC[N+]12CN3CN(CN(C3)C1)C2.[Cl-] [Dowicil 200, 1-(3-Chlorallyl)-3,5,7-triaza-1-azoniaadamantane chloride] | – | freely soluble in water
2 | O=[N+]([O-])C1(Br)COCOC1 [Bronidox L, 5-bromo-5-nitro-1,3-dioxane] | about 0.46% | –
3 | OCCOc1ccccc1 [2-phenoxyethanol] | about 2.67% | –
4 | [Na+].[O-][n+]1ccccc1[S-] [sodium pyrithione] | about 50% | –
5 | OCCc1ccccc1 [2-phenylethanol] | about 2% | –

Continued, in another order:

Row | water solubility | Structure (SMILES) | solubility in water
6 | about 4% | OCc1ccccc1 [benzyl alcohol] | –
7 | about 1.8% | [H]/N=C(\N/C(=N/[H])NCCCCCCNC(=N)NC(=N)Nc1ccc(Cl)cc1)Nc1ccc(Cl)cc1 [chlorhexidine diacetate, 1,1′-hexamethylene bis(5-(p-chlorophenyl)biguanide)] | –
8 | about 70% | [H]/N=C(\N/C(=N/[H])NCCCCCCNC(=N)NC(=N)Nc1ccc(Cl)cc1)Nc1ccc(Cl)cc1 [chlorhexidine digluconate, 1,1′-hexamethylene bis(5-(p-chlorophenyl)biguanide)] | –
9 | more than 50% | CC1(C)C(=O)N(CO)C(=O)N1CO [DMDM hydantoin, 1,3-bis(hydroxymethyl)-5,5-dimethyl-2,4-imidazolidinedione] | –
10 | about 25% | O=[N+]([O-])C(Br)(CO)CO [Bronopol, 2-bromo-2-nitropropane-1,3-diol] | –
11 | about 0.8% | CC(C)(O)C(Cl)(Cl)Cl [chlorobutanol, 1,1,1-Trichloro-2-methylpropan-2-ol] | –
